These results are taken from patent US6638938B1, “Method for preventing tissue injury from hypoxia” (Cell Therapeutics, Inc., priority 1993, dated 2003).

The structures appear in SMILES notation.

In experiment [1] the test system is TNFα. The experiment is described as follows: TNFα sandwich ELISA of BAL supernatants and plasma. Type of experiment: in vivo, Balb/C mice. The procedure:
This example illustrates a study of Lisofylline in a murine hemorrhage and resuscitation model. Male Balb/C mice, 8-12 weeks of age, were obtained from Harlan-Sprague Dawley (Indianapolis, Ind.). The animals were kept on a 12 hour light/dark cycle with free access to food and water. With this model, 30% of the calculated blood volume (approximately 0.55 ml for a 20 gram mouse) was withdrawn from a methoxyflurane anesthetized mouse by cardiac puncture over a 60-second period. The blood was collected into a heparinized syringe (5 units heparin), kept at 37° C. for one hour, then reinfused into the mouse through a retroorbital plexus injection. Using this method, one is able to resuscitate all hemorrhaged mice without complication. The total period of methoxyflurane anesthesia is less than 2 minutes in all cases. The mortality rate with this hemorrhage protocol is approximately 12%, with all deaths occurring over the 24 hours post hemorrhage, and most deaths occurring within the one hour post hemorrhage.
Mice were treated with 100 mg/kg Lisofylline in 0.2 ml PBS and given initially i.v., by retroorbital injection, then i.p. every 8 hours for a total of 9 doses. In hemorrhaged mice, the Lisofylline in PBS was added to the shed blood, and then given retroorbitally with the blood during the resuscitation phase. In hemorrhaged Balb/C mice (n=3), sacrificed by exsanguination 5 minutes after receiving Lisofylline with the blood used for resuscitation, serum levels of Lisofylline were 44±6 μg/ml.
Three days following hemorrhage and resuscitation or the initiation of treatment with Lisofylline therapy in normal treated animals, mice were anesthetized with methoxyflurane and sacrificed by exsanguination through cardiac puncture into a heparinized (5 U) syringe. Normal mice, not subjected to hemorrhage/resuscitation or to treatment with Lisofylline, were included. Bronchoalveolar lavage (BAL) specimens, using 1.0 ml PBS injected and aspirated three times into the trachea and lungs, were obtained. Cells contained in the BAL were collected by centrifugation of BAL specimens. […] As determined by cytology, there was less than 3% contamination of alveolar macrophages with lymphocytes, neutrophils, or other mononuclear cell populations when BAL specimens are collected in normal Balb/C mice, but approximately 11±2% of isolated cells are neutrophils in mice subjected 3 days previously to 30% blood volume hemorrhage with resuscitation one hour later. […]
TNFα and IFN-γconcentrations in BAL supernatants and plasma were determined with sandwich ELISA assays using the monoclonal antibody pairs (i.e., unbiotinylated or biotinylated) MP6-XT3 for TNFα and XMG1.2 for IFN-γ(Pharmingen San Diego, Calif.). […]
Background: In an ELISA, binding on a coated surface is turned into a signal by an enzyme label.

Experiment [2] has as its system TNFα. As to the kind of experiment: immunohistochemical staining of lung samples for TNFα. Type of experiment: in vivo. Particulars: hemorrhaged/resuscitated mice or normal mice treated. From the text: In sections from mice subjected to hemorrhage and resuscitation 3 days previously, staining for TNFα was present, particularly in the perivascular areas.
The subject of experiment [3] is isolated rat lungs. As to the kind of experiment: human neutrophil perfused isolated rat lungs given IL-8 intratracheally. The procedure:
After Sprague-Dawley adult male rats (350±50 g) were anesthetized with pentobarbital (60 mg/kg i.p.), a tracheotomy cannula was placed and secured with 2-O ligature. Lungs were ventilated with a tidal volume of 3 cc at a rate of 60/min. with a gas mixture containing 5% CO2 21% O2 and 74% N2. Following midline thoracotomy, a 4-O ligature was loosely placed around the root of the pulmonary outflow tract. Heparin (200 units) was injected into the right ventricle and allowed to recirculate. A rigid cannula was placed into the right ventricle, threaded into the pulmonary outflow tract, and secured with the ligature. The left ventricle was incised and a drainage cannula was inserted and secured with a 2-O ligature. Lungs and heart were excised, placed in an isolated lung chamber, and ventilated with 2.5 cm of positive end-expiratory pressure. Lungs were perfused free of blood using Earle's Balanced Salt Solution (Sigma) containing calcium chloride (0.265 g/L), magnesium sulfate (0.09767 g/L), potassium chloride (0.4 g/L), sodium chloride (6.8 g/L), sodium phosphate monobasic (0. 122 g/L) and D-glucose (1 g/L) to which was added sodium bicarbonate (2.2 g/L.) and Ficoll-70 (Sigma)(40 g/L), and the final pH adjusted to 7.40. […] Pulmonary artery pressures were continuously monitored with a transducer and weight increases were monitored with a force transducer. […]

For experiment [4], the system named is PA and DAG generation. Particulars: cited from earlier work.

On to `C[C@@H](O)CCCCn1c(=O)c2c(ncn2C)n(C)c1=O` [Lisofylline, 1-R-(5-hydroxyhexyl)-3,7-dimethylxanthine], for which the “plasma TNFα concentrations” value turned out to be 218 ± 49 pg/mL in experiment [1] (hemorrhage/resuscitated/Lisofylline treated mice) and 116 ± 36 pg/mL in experiment [1] (normal/Lisofylline treated mice). Further, the “TNFα concentrations in BAL supernatants” value in experiment [1] (hemorrhaged/resuscitated mice treated) was determined as 73 ± 45 pg/mL. Also, the “TNFα in BAL supernatants” value in experiment [1] (unhemorrhaged mice treated, p<0.01 versus normal untreated) came out at 676±80 pg/mil. In addition, the “immunohistochemical staining of lung for TNFα” value in experiment [2] was “no signal”. In addition, the “Lung Weight Gain” value is 0.0 ± 0.0 (3)δ g in experiment [3] (Neutrophils + IL-8 + Lisofylline 1 μM) and 0.0 ± 0.0 (4)δ g in experiment [3] (Neutrophils + IL-8 + Lisofylline 50 μM). Further, in experiment [4], the “concentrations at which Lisofylline effectively inhibits PA synthesis” value is 10 to 30 µM.
